Patent US20070155806A1 (The University of Tokyo, priority 2005, published 2007)

Columns and labels:
Format in all cases: biochemical
[1] = target: T1, luciferase (firefly) (Photinus pyralis, UniProt P08659); experiment: Luminescence characteristics with firefly luciferase (Example 3); details: for relative intensity: calculated on the basis of the intensity obtained for aminoluciferin; for λmax(nm): luminescence peak, HEPES pH 7.7, ATP, Mg, CoA; for λmax(nm) / initial intensity: 12 μmol/L substrate, 20 μg/mL luciferase; for initial intensity: luminescence, HEPES pH 7.7; for peak luminescence wavelength shift to longer wavelength side compared with luciferin: versus luciferin
T1 sequence (P08659 whole entry, species assumed): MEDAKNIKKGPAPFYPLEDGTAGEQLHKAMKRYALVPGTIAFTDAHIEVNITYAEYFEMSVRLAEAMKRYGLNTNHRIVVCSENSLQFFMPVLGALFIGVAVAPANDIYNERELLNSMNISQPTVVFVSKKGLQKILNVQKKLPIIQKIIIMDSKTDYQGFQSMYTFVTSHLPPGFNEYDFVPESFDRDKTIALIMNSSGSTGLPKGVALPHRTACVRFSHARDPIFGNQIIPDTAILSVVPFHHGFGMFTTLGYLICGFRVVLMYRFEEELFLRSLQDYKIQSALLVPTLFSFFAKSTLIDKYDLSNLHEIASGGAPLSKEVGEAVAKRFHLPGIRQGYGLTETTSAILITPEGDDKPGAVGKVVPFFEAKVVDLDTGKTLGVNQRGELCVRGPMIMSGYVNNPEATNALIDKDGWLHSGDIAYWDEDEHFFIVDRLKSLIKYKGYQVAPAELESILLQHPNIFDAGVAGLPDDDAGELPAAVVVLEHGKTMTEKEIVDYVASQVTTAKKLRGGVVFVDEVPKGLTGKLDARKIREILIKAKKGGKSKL
Method: The measurement was performed by using Fluorescence Spectrophotometer F-4500 (Hitachi).

[2] = target: T1, luciferase (firefly); experiment: Measurement of luminescence after reaction with luciferase (Example 5, FIG. 2); details: 12 μmol/L substrate, 40 μg/mL luciferase
Method: Luminescence spectra of Compounds 19 and 20 were measured.

[3] = target: T1, luciferase (firefly); experiment: HPLC analysis of luciferase reaction product with or without ATP (Example 6, FIG. 3); details: system added with ATP vs without ATP
Method: For 6-(4-aminophenethyl)-aminoluciferin (Compound 21), the enzymatic reaction was also performed in a system without ATP (all the other conditions were the same as Example 5), along with the aforementioned enzymatic reaction in Example 5. After these two enzymatic reactions, each enzymatic reaction mixture was collected and filtered by using a centrifugal separator to remove the enzyme. The solvent was evaporated by lyophilization to obtain a residue after the enzymatic reaction. A small amount of the residue was dissolved in purified water and methanol, then analyzed by HPLC. The results are shown in FIG. 3. • Analysis conditions • Elution solvent: A=H2O/0.1% trifluoroacetic acid, B=80% acetonitrile/20% • water/0.1% trifluoroacetic acid, A/B=80/20 to 20/80 (20 minutes) • Detection: UV-vis (400 nm) • Column: ODS-3, 4.6×250 mm • Flow rate: 1 mL/min

CNc1ccc2nc(C3=NC(C(=O)O)CS3)sc2c1 (stereo not shown) [Compound 10, N-methylaminoluciferin]
relative intensity [1]: 66.5
λmax(nm) [1]: 624 nm
initial intensity [1]: 1360
peak luminescence wavelength shift to longer wavelength side compared with luciferin [1]: 49 nm

CN(C)c1ccc2nc(C3=NC(C(=O)O)CS3)sc2c1 (stereo not shown) [Compound 11, N,N-dimethylaminoluciferin]
relative intensity [1]: 44.1
λmax(nm) [1]: 641 nm
initial intensity [1]: 901
peak luminescence wavelength shift to longer wavelength side compared with luciferin [1]: 66 nm

O=C(O)C1CSC(c2nc3ccc(NCc4ccccc4)cc3s2)=N1 (stereo not shown) [Compound 12, N-benzylaminoluciferin]
relative intensity [1]: 5.2
λmax(nm) [1]: 623 nm
initial intensity [1]: 106
peak luminescence wavelength shift to longer wavelength side compared with luciferin [1]: 48 nm

O=C(O)C1CSC(c2nc3ccc(NCCc4ccccc4)cc3s2)=N1 (stereo not shown) [Compound 13, N-phenethylaminoaminoluciferin]
relative intensity [1]: 8.6
λmax(nm) [1]: 611 nm
initial intensity ([1]; listed as N-phenethylaminoluciferin): 175
peak luminescence wavelength shift to longer wavelength side compared with luciferin [1]: 36 nm

O=C(O)C1CSC(c2nc3ccc(NCCCc4ccccc4)cc3s2)=N1 (stereo not shown) [Compound 14, N-phenylpropylaminoluciferin]
relative intensity [1]: 48.0
λmax(nm) [1]: 611 nm
initial intensity [1]: 980
peak luminescence wavelength shift to longer wavelength side compared with luciferin [1]: 36 nm

O=C(Nc1ccc(CCNc2ccc3nc(C4=NC(C(=O)O)CS4)sc3c2)cc1)OCc1ccccc1 (stereo not shown) [Compound 19, 6-(4′-benzyloxycarbonylamidophenethyl)-aminoluciferin]
luminescent property [2]: luminescence was observed
luminescence peak ([2]; HEPES pH 7.7): about 610 nm

Nc1ccc(CCNc2ccc3nc(C4=N[C@@H](C(=O)O)CS4)sc3c2)cc1 [Compound 21, 6-(4′-aminophenethyl)-aminoluciferin]
reaction as luciferase substrate (elution peak of compound after enzymatic reaction) [3]: reacted as a luciferase substrate
luminescent property [2]: completely lost the luminescent property

Nc1ccc2nc(C3=N[C@@H](C(=O)O)CS3)sc2c1 [aminoluciferin, reference compound]
relative intensity [1]: 100.0
λmax(nm) [1]: 609 nm
initial intensity [1]: 2044
peak luminescence wavelength shift to longer wavelength side compared with luciferin [1]: 34 nm
